Test system: Human peripheral blood mononuclear cells (PBMCs) as Responder cells, RPMI 1788 Stimulator cells
Assay: Mixed Lymphocyte Reaction (MLR) test
Format: cell-based
Conditions: Homo sapiens, RPMI-1788, lowest concentration giving 50% inhibition of the MLR; 6 days coculture, 3H-thymidine incorporation
Outline: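 Proliferation was read as cpm after a 1 μCi ^3H-thymidine pulse on day 5 and harvest 18 h later, then expressed as % inhibition relative to an MLR without compound. The 6-day triplicate cocultures combined 0.12×10^6 Ficoll-isolated human PBMCs with 0.045×10^6 mitomycin C-inactivated RPMI 1788 cells in RPMI 1640 with 10% FCS.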

Compared with `Nc1nc(N2CCN(C(=O)COc3ccc(OC(F)(F)F)cc3)CC2)c2nc(CCc3ccc(F)cc3)sc2n1` [Example 226, 1-(4-(5-amino-2-(4-fluorophenethyl)thiazolo[5,4-d]pyrimidin-7-yl)piperazin-1-yl)-2-(4-(trifluoromethoxy)phenoxy)ethanone], `COC(=O)c1ccc(OCC(=O)N2CCN(c3nc(N)nc4sc(CCc5ccc(F)cc5)nc34)CC2)cc1` [Example 225, methyl 4-(2-(4-(5-amino-2-(4-fluorophenethyl)thiazolo[5,4-d]pyrimidin-7-yl)piperazin-1-yl)-2-oxoethoxy)benzoate] is higher in IC50: 7120 nM for the first, > 10000 nM for the second. The first is the more potent here.

First: N#Cc1ccc(NC(=O)N2CCN(c3nc(N)nc4sc(-c5cccnc5)nc34)CC2)cc1 [Example 279, 4-(5-amino-2-(pyridin-3-yl)thiazolo[5,4-d]pyrimidin-7-yl)-N-(4-cyanophenyl)piperazine-1-carboxamide]
Second: Nc1nc(N2CCN(C(=O)Nc3ccc(Cl)cc3)CC2)c2nc(-c3cccnc3)sc2n1 [Example 277, 4-(5-amino-2-(pyridin-3-yl)thiazolo[5,4-d]pyrimidin-7-yl)-N-(4-chlorophenyl)piperazine-1-carboxamide]
The IC50 of the first is 4.2-fold higher: 100 nM for the first, 24 nM for the second. The second is the more potent here.

First: Nc1nc(N2CCN(C(=O)COc3cccc([N+](=O)[O-])c3)CC2)c2nc(CCc3ccc(F)cc3)sc2n1 [Example 131, 5-amino-2-[2-(4-fluorophenyl)ethyl]-7-(4-[2-(3-nitrophenoxy)acetyl]piperazin-1-yl)-thiazolo[5,4-d]pyrimidine]
Second: Nc1nc(N2CCN(C(=O)COc3ccc(Cl)cc3)CC2)c2nc(CCCc3ccc(F)cc3)sc2n1 [Example 290, 1-(4-(5-amino-2-(3-(4-fluorophenyl)propyl)thiazolo[5,4-d]pyrimidin-7-yl)piperazin-1-yl)-2-(4-chlorophenoxy)ethanone]
The IC50 of the first is 3.4-fold higher: 3250 nM for the first, 960 nM for the second.

`Nc1nc(N2CCN(C(=O)Nc3ccc(Cl)cc3)CC2)c2cc(-c3ccccc3)sc2n1` [Example 331, 4-(2-amino-6-phenylthieno[2,3-d]pyrimidin-4-yl)-N-(4-chlorophenyl)piperazine-1-carboxamide] and `CC(C)(Oc1ccc(Cl)cc1)C(=O)N1CCN(c2nc(N)nc3sc(-c4ccccc4)cc23)CC1` [Example 373, 1-(4-(2-amino-6-phenylthieno[2,3-d]pyrimidin-4-yl)piperazin-1-yl)-2-(4-chlorophenoxy)-2-methylpropan-1-one] are within 1.5-fold of each other in IC50: 6700 nM for the first, 6920 nM for the second.

First: Nc1nc(N2CCN(C(=O)COc3cccc([N+](=O)[O-])c3)CC2)c2nc(-c3ccc(F)cc3)oc2n1 [Example 193, 5-amino-2-(4-fluorophenyl)-7-(4-[2-(3-nitrophenoxy)acetyl]-piperazin-1-yl)-oxazolo[5,4-d]pyrimidine]
Second: CC(=O)N1CCN(c2nc(N)nc3oc(-c4ccc(F)cc4)nc23)CC1 [Example 191, 5-amino-2-(4-fluorophenyl)-7-(4-acetylpiperazin-1-yl)-oxazolo[5,4-d]pyrimidine]
The IC50 of the first is lower: 700 nM for the first, > 10000 nM for the second. The first is the more potent here.

Going from `N#Cc1ccc(NC(=O)N2CCN(c3nc(N)nc4sc(CCc5ccc(F)cc5)nc34)CC2)cc1` [Example 229, 4-(5-amino-2-(4-fluorophenethyl)thiazolo[5,4-d]pyrimidin-7-yl)-N-(4-cyanophenyl)piperazine-1-carboxamide] to `Cc1ccc(CCc2nc3c(N4CCN(C(=O)COc5ccc(Br)cc5)CC4)nc(N)nc3s2)cc1` [Example 258, 1-(4-(5-amino-2-(4-methylphenethyl)thiazolo[5,4-d]pyrimidin-7-yl)piperazin-1-yl)-2-(4-bromophenoxy)ethanone], the IC50 falls from 2660 nM to 930 nM (2.9-fold).

`COc1ccc(OCC(=O)N2CCN(c3nc(N)nc4sc(CCc5ccc(C)cc5)nc34)CC2)cc1` [Example 259, 1-(4-(5-amino-2-(4-methylphenethyl)thiazolo[5,4-d]pyrimidin-7-yl)piperazin-1-yl)-2-(4-methoxyphenoxy)ethanone] and `COc1ccc(CCc2nc3c(N4CCN(C(=O)COc5ccc(Br)cc5)CC4)nc(N)nc3s2)cc1OC` [Example 256, 1-(4-(5-amino-2-(3,4-dimethoxyphenethyl)thiazolo[5,4-d]pyrimidin-7-yl)piperazin-1-yl)-2-(4-bromophenoxy)ethanone] are within 1.5-fold of each other in IC50: 960 nM for the first, 740 nM for the second.

`Nc1nc(SCc2ccccc2)c2nc(-c3ccc(F)cc3)sc2n1` [Example 28, 7-(benzylthio)-2-(4-fluorophenyl)thiazolo[5,4-d]pyrimidin-5-amine] and `CCOc1nc(N)nc2sc(-c3ccc(F)cc3)nc12` [Example 30, 7-ethoxy-2-(4-fluorophenyl)thiazolo[5,4-d]pyrimidin-5-amine] cannot be ordered by IC50: > 10000 nM for the first, > 10000 nM for the second.

`COCCOc1nc(N)nc2sc(-c3ccc(F)cc3)nc12` [Example 29, 2-(4-fluorophenyl)-7-(2-methoxyethoxy)-thiazolo[5,4-d]pyrimidin-5-amine] and `Nc1nc(N2CCOCC2)c2nc(-c3ccc(F)cc3)sc2n1` [Example 33, 2-(4-fluorophenyl)-7-morpholino-thiazolo[5,4-d]pyrimidin-5-amine] cannot be ordered by IC50: > 10000 nM for the first, > 10000 nM for the second.

`Nc1nc(N2CCN(C(=O)COc3ccc(Cl)cc3)CC2)c2nc(-c3ccc(F)cc3)[nH]c2n1` [Example 389, 1-(4-(2-amino-8-(4-fluorophenyl)-9H-purin-6-yl)piperazin-1-yl)-2-(4-chlorophenoxy)ethanone] and `Nc1nc(N2CCN(C(=O)COc3ccc(Cl)cc3)CC2)c2nc(-c3cccc(Cl)c3)[nH]c2n1` [Example 393, 1-(4-(2-amino-8-(3-chlorophenyl)-9H-purin-6-yl)piperazin-1-yl)-2-(4-chlorophenoxy)ethanone] are within 1.5-fold of each other in IC50: 810 nM for the first, 660 nM for the second.

First: CCC(c1ccc(F)cc1)c1nc2c(N3CCN(C(=O)COc4ccc(Cl)cc4)CC3)nc(N)nc2s1 (stereo not drawn) [Example 150, 5-amino-2-[1-(4-fluorophenyl)propyl]-7-(4-[2-(4-chlorophenoxy)acetyl]piperazin-1-yl)thiazolo[5,4-d]pyrimidine]
Second: CSc1nc2c(N3CCN(C(=O)COc4ccc(Cl)cc4)CC3)nc(N)nc2s1 [Example 115, 5-amino-7-[4-(4-chlorophenoxyacetyl)piperazin-1-yl]-2-methylthio-thiazolo[5,4-d]pyrimidine]
The IC50 of the first is lower: 5390 nM for the first, > 10000 nM for the second. The first is the more potent here.

First: CC(=O)N1CCN(c2nc(N)nc3[nH]c(-c4ccc(F)cc4)nc23)CC1 [Example 408, 1-(4-(2-amino-8-(4-fluorophenyl)-9H-purin-6-yl)piperazin-1-yl)ethanone]
Second: CSc1nc2c(N3CCN(C(=O)COc4ccc(Cl)cc4)CC3)nc(N)nc2[nH]1 [Example 424, 1-(4-(2-amino-8-(methylthio)-9H-purin-6-yl)piperazin-1-yl)-2-(4-chlorophenoxy)ethanone]
The IC50 of the first is higher: > 10000 nM for the first, 610 nM for the second. The second is the more potent here.

First: Nc1nc(N2CCN(CCOc3ccccc3)CC2)c2nc(CCc3ccc(F)cc3)sc2n1 [Example 149, 5-amino-2-[2-(4-fluorophenyl)ethyl]-7-(4-(2-phenoxyethyl)piperazin-1-yl)-thiazolo[5,4-d]pyrimidine]
Second: CN(C(=O)CN1CCN(c2nc(N)nc3oc(CCc4ccc(F)cc4)nc23)CC1)c1ccccc1 [Example 198, 5-amino-2-[2-(4-fluorophenyl)ethyl]-7-(4-[(methylphenyl-carbamoyl)methyl]piperazin-1-yl)-oxazolo[5,4-d]pyrimidine]
The IC50 of the first is lower: 5760 nM for the first, > 10000 nM for the second. The first is the more potent here.

`O=C(COc1ccc(Cl)cc1)N1CCN(c2ncnc3sc(CCc4ccc(F)cc4)nc23)CC1` [Example 303, 1-(4-(2-(4-fluorophenethyl)thiazolo[5,4-d]pyrimidin-7-yl)piperazin-1-yl)-2-(4-chlorophenoxy)ethanone] and `COc1ccc(OCC(=O)N2CCN(c3ncnc4sc(-c5ccc(F)cc5)nc34)CC2)cc1` [Example 300, 1-(4-(2-(4-fluorophenyl)thiazolo[5,4-d]pyrimidin-7-yl)piperazin-1-yl)-2-(4-methoxyphenoxy)ethanone] are within 1.5-fold of each other in IC50: 5590 nM for the first, 5530 nM for the second.

Compared with `Nc1nc(N2CCOCC2)c2nc(Cc3ccc(F)cc3)sc2n1` [Example 34, 2-(4-fluorobenzyl)-7-morpholino-thiazolo[5,4-d]pyrimidin-5-amine], `Cc1cc(Cl)ccc1OCC(=O)N1CCN(c2nc(N)nc3sc(-c4ccc(F)cc4)nc23)CC1` [Example 213, 1-(4-(5-amino-2-(4-fluorophenyl)thiazolo[5,4-d]pyrimidin-7-yl)piperazin-1-yl)-2-(4-chloro-2-methylphenoxy)ethanone] is lower in IC50: > 10000 nM for the first, 219 nM for the second. The second is the more potent here.

Compared with `Nc1nc(N2CCN(C(=O)c3ccc(Cl)cc3)CC2)c2nc(CCc3ccc(F)cc3)oc2n1` [Example 195, 5-amino-2-[2-(4-fluorophenyl)ethyl]-7-(4-[4-chlorobenzoyl]piperazin-1-yl)-oxazolo[5,4-d]pyrimidine], `Cc1cccc(NC(=O)N2CCN(c3nc(N)nc4sc(-c5ccc(F)cc5)cc34)CC2)c1` [Example 359, 4-(2-amino-6-(4-fluorophenyl)thieno[2,3-d]pyrimidin-4-yl)-N-m-tolylpiperazine-1-carboxamide] is lower in IC50: > 10000 nM for the first, 2800 nM for the second. The second is the more potent here.

Going from `Nc1nc(N2CCN(C(=O)COc3ccc(F)cc3)CC2)c2cc(-c3ccccc3)sc2n1` [Example 370, 1-(4-(2-amino-6-phenylthieno[2,3-d]pyrimidin-4-yl)piperazin-1-yl)-2-(4-fluorophenoxy)ethanone] to `Cc1cccc(OCC(=O)N2CCN(c3nc(N)nc4sc(-c5cccnc5)nc34)CC2)c1` [Example 275, 1-(4-(5-amino-2-(pyridin-3-yl)thiazolo[5,4-d]pyrimidin-7-yl)piperazin-1-yl)-2-(m-tolyloxy)ethanone], the IC50 falls from 66 nM to 3 nM (22-fold). The second is the more potent here.

`Nc1nc(N2CCN(C(=O)COc3ccc(Cl)cc3)CC2)c2nc(C3CC3)[nH]c2n1` [Example 398, 1-(4-(2-amino-8-cyclopropyl-9H-purin-6-yl)piperazin-1-yl)-2-(4-chlorophenoxy)ethanone] was tested, and the IC50 was 430 nM.

Same assay, conditions: lowest concentration giving 50% inhibition of the MLR; 6 days coculture, 3H-thymidine incorporation

`COCCCNc1nc(N)nc2sc(-c3ccc(F)cc3)nc12` [Example 32, 2-(4-fluorophenyl)-N-7-(3-methoxypropyl)thiazolo[5,4-d]pyrimidine-5,7-diamine] was tested, and the IC50 was > 10000 nM.

Source: patent US9221822B2, “Thiazolopyrimidine modulators as immunosuppressive agents” (Katholieke Universiteit Leuven, K.U.Leuven R&D, priority 2009, dated 2015)
